Here are results for 48 compounds from ChEMBL document CHEMBL1921784, “Benzobistriazinones and related heterocyclic ring systems as potent, orally bioavailable positive allosteric AMPA receptor modulators” (Bioorg Med Chem Lett, 2011).

Data set [1] is filed under the species Rattus norvegicus. Description: Positive allosteric modulation of AMPA receptor in Sprague-Dawley rat embryonic hippocampal neuron assessed as concentration required to double the steady-state glutamate-induced current by patch-clamp assay. Particulars: Hippocampus. On the technique in general: The patch-clamp technique gives a direct electrical read-out from membranes.

The subject of data set [2] is Rattus norvegicus. Nature of the data set: Positive allosteric modulation of AMPA receptor in Sprague-Dawley rat adult hippocampus dentate gyrus assessed as increase in field excitatory postsynaptic potential amplitude at 5 mg/kg, ip infused for 30 mins relative to baseline. The class given is functional.
In data set [3] the test system is Rattus norvegicus. Nature of the data set: Positive allosteric modulation of AMPA receptor in Sprague-Dawley rat adult hippocampus dentate gyrus assessed as increase in field excitatory postsynaptic potential amplitude at 10 mg/kg, ip infused for 30 mins relative to baseline. Type of data set: functional. The conditions noted are these: route intraperitoneal.
Data set [4] concerns Rattus norvegicus. Nature of the data set: Positive allosteric modulation of AMPA receptor in Sprague-Dawley rat adult hippocampus dentate gyrus assessed as increase in field excitatory postsynaptic potential amplitude at 1 mg/kg, ip infused for 30 mins relative to baseline. Type of data set: functional. The conditions noted are these: route intraperitoneal.
Data set [5] can be described thus: Half life in dog. The class given is ADME, organism-based, Canis lupus familiaris. Particulars: in vivo.
Data set [6] in a line: Half life in rat. Type of data set: ADME, organism-based. Particulars: in vivo.
Data set [7] is described as follows: Oral bioavailability in rat. Particulars: in vivo. The class given is ADME, organism-based.
In data set [8] the test system is Rattus norvegicus. Description: Positive allosteric modulation of AMPA receptor in Sprague-Dawley rat adult hippocampus dentate gyrus assessed as increase in field excitatory postsynaptic potential amplitude at 20 mg/kg, ip infused for 30 mins relative to baseline. Type of data set: functional. Particulars: route intraperitoneal.
Data set [9] deals with Rattus norvegicus. Description: Positive allosteric modulation of AMPA receptor in Sprague-Dawley rat adult hippocampus dentate gyrus assessed as increase in field excitatory postsynaptic potential amplitude at 3 mg/kg, ip infused for 30 mins relative to baseline. Type of data set: functional. Particulars: route intraperitoneal.
Data set [10] in a line: Half life in cynomolgus monkey. Particulars: in vivo. The class given is ADME, organism-based, Macaca fascicularis.
The nature of data set [11]: Oral bioavailability in cynomolgus monkey. Type of data set: ADME, organism-based, Macaca fascicularis. The conditions noted are these: in vivo.

Activity calls are given as the source filed them. The rule behind the calls is not given here.

On to `C[C@H](Cn1cccn1)n1cnc2cc3c(=O)n([C@H](C)Cn4cccn4)cnc3cc2c1=O`, for which the CD in the data set filed under Rattus norvegicus [1] is 0.09 µM. The Activity in the data set on Rattus norvegicus [2] (route intraperitoneal) is recorded as 2%.
Regarding `C[C@H](Cn1ccnn1)n1nnc2cc3c(=O)n(C4CC4)nnc3cc2c1=O`, the CD in the data set filed under Rattus norvegicus [1] was found to be 0.37 µM. Moreover, the Activity in the data set on Rattus norvegicus [3] was 24%.
For `C[C@H](Cn1ncnn1)n1cnc2cc3c(=O)n(CC(F)(F)F)nnc3cc2c1=O`, the Activity in the data set on Rattus norvegicus [3] was found to be 7%.
For `C[C@H](Cn1ccnn1)n1nnc2cc3c(=O)n(C)nnc3cc2c1=O`, in the data set listed under Rattus norvegicus [1], the CD amounted to 0.09 µM. In addition, in the data set with Rattus norvegicus [2] (route intraperitoneal), the Activity is listed as 7%.
For `C[C@H](Cn1ncnn1)n1cnc2cc3c(=O)n(C4CC4)cnc3cc2c1=O`, in the data set listed under Rattus norvegicus [1], the CD turned out to be 1.4 µM. Further, the Activity in the data set on Rattus norvegicus [2] (route intraperitoneal) was found to be 2%.
Turning to `C[C@H](Cn1nccn1)n1cnc2cc3c(=O)n(C4CC4)nnc3cc2c1=O`, in the data set on Rattus norvegicus [3], the Activity was 9%.
In the case of `C[C@H](Cn1cnnn1)n1nnc2cc3c(=O)n(C4CC4)nnc3cc2c1=O`, the CD in the data set listed under Rattus norvegicus [1] was 0.07 µM. Moreover, in the data set on Rattus norvegicus [2] (route intraperitoneal), the Activity stood at 11%.
Take `O=c1c2cc3nnn(C4CC4)c(=O)c3cc2ncn1CCn1ncnn1`: the Activity in the data set on Rattus norvegicus [2] (route intraperitoneal) is 7%.
Take `C[C@H](Cn1cnnn1)n1cnc2cc3c(=O)n(C4CC4)nnc3cc2c1=O`: the CD in the data set filed under Rattus norvegicus [1] came out at 0.07 µM. The Activity in the data set on Rattus norvegicus [2] (route intraperitoneal) is 2%.
In the case of `C[C@H](Cn1cc(C#N)cn1)n1cnc2cc3c(=O)n(C4CC4)nnc3cc2c1=O`, the Activity in the data set on Rattus norvegicus [2] (route intraperitoneal) amounted to 2%.
`C[C@H](Cn1ncnn1)n1nnc2cc3c(=O)n([C@H](C)Cn4ncnn4)nnc3cc2c1=O`: in the data set filed under Rattus norvegicus [1], the CD was 0.016 µM. Besides, in the data set on Rattus norvegicus [4], the Activity is 59%.
As for `C[C@H](Cn1ncc(C#N)n1)n1cnc2cc3c(=O)n(C4CC4)nnc3cc2c1=O`, the Activity with Rattus norvegicus [3] is 3%.
As to `C[C@H](Cn1nccn1)n1nnc2cc3c(=O)n(C)nnc3cc2c1=O`, the CD in the data set filed under Rattus norvegicus [1] is 2.1 µM. Further, in the data set with Rattus norvegicus [2] (route intraperitoneal), the Activity is on record as 7%.
In the case of `C[C@H](Cn1ncnn1)n1cnc2cc3c(=O)n([C@H](C)Cn4ncnn4)nnc3cc2c1=O`, the CD in the data set listed under Rattus norvegicus [1] was determined as 0.008 µM. Also, the Activity in the data set on Rattus norvegicus [4] came to 43%.
As to `C[C@H](Cn1cnnn1)n1nnc2cc3c(=O)n(C)nnc3cc2c1=O`, the CD in the data set filed under Rattus norvegicus [1] worked out at 0.08 µM. For the same compound, the Activity in the data set on Rattus norvegicus [2] (route intraperitoneal) worked out at 19%.
In the case of `C#C[C@H](Cn1ncnn1)n1nnc2cc3c(=O)n(C4CC4)nnc3cc2c1=O`, the Activity in the data set with Rattus norvegicus [2] (route intraperitoneal) came to 4%.
For `C#CCn1nnc2cc3c(=O)n([C@H](C)Cn4cnnn4)cnc3cc2c1=O`, the CD in the data set listed under Rattus norvegicus [1] was found to be 0.25 µM. Further, the Activity with Rattus norvegicus [2] (route intraperitoneal) worked out at 1%.
Taken in the same sequence, the figures for `C[C@H](Cn1ncnn1)n1nnc2cc3c(=O)n(C)nnc3cc2c1=O` were 0.28 µM and 46%.
For `C[C@H](Cn1cccn1)n1cnc2cc3c(=O)n(C4CC4)nnc3cc2c1=O`, in the data set on Rattus norvegicus [3], the Activity is on record as 20%.
On to `CCn1nnc2cc3c(=O)n([C@H](C)Cn4ncnn4)nnc3cc2c1=O`, for which the CD in the data set filed under Rattus norvegicus [1] worked out at 0.3 µM. Besides, the Activity in the data set on Rattus norvegicus [2] (route intraperitoneal) is on record as 34%.
Take `C[C@H](Cn1ncnn1)n1cnc2cc3c(=O)n([C@H](C)Cn4cnnn4)nnc3cc2c1=O`: the CD in the data set listed under Rattus norvegicus [1] was 0.02 µM. The Activity in the data set with Rattus norvegicus [2] (route intraperitoneal) is reported as 1%.
By half-life is commonly meant the time in which the quantity being followed falls by half. Broadly, the bioavailability is dose-corrected exposure relative to a reference, in per cent. Turning to `C[C@H](Cn1ncnn1)n1cnc2cc3c(=O)n(C4CC4)nnc3cc2c1=O`, in the data set filed under Rattus norvegicus [1], the CD amounted to 0.6 µM. For the same compound, the half-life in [5] was 4.8 h; in data set [6], 1.6 h. The bioavailability in [7] turned out to be 100%. The Activity in the data set with Rattus norvegicus [2] (route intraperitoneal) stood at 33%.
With `C[C@H](CNS(C)(=O)=O)n1nnc2cc3c(=O)n(C4CC4)nnc3cc2c1=O`, the CD in the data set filed under Rattus norvegicus [1] amounted to 0.7 µM. In addition, in the data set with Rattus norvegicus [2], the result was inactive.
For `CC#CCn1nnc2cc3c(=O)n([C@H](C)Cn4ncnn4)nnc3cc2c1=O`, the Activity in the data set on Rattus norvegicus [2] (route intraperitoneal) is 43%.
Take `C[C@H](Cn1nccn1)n1nnc2cc3c(=O)n(C4CC4)nnc3cc2c1=O`: the CD in the data set listed under Rattus norvegicus [1] came to 1.3 µM. In addition, the Activity in the data set on Rattus norvegicus [3] is given as 12%.
On to `C[C@H](Cn1ncnn1)n1nnc2cc3c(=O)n(C4CC4)cnc3cc2c1=O`, for which the CD in the data set filed under Rattus norvegicus [1] came out at 1 µM. The Activity in the data set on Rattus norvegicus [2] (route intraperitoneal) was 16%.
`C=CCn1nnc2cc3c(=O)n([C@H](C)Cn4ncnn4)nnc3cc2c1=O`: in the data set with Rattus norvegicus [2] (route intraperitoneal), the Activity turned out to be 12%.
Turning to `COCCn1nnc2cc3c(=O)n([C@H](C)Cn4ncnn4)nnc3cc2c1=O`, the Activity with Rattus norvegicus [2] (route intraperitoneal) amounted to 34%.
Consider `C[C@H](Cn1ncnn1)n1cnc2cc3c(=O)n(CCF)nnc3cc2c1=O`, for which the Activity in the data set on Rattus norvegicus [3] came out at 32%.
As to `Cc1nnnn1C[C@@H](C)n1nnc2cc3c(=O)n(C4CC4)nnc3cc2c1=O`, the CD in the data set listed under Rattus norvegicus [1] came to 0.25 µM. The Activity with Rattus norvegicus [2] (route intraperitoneal) turned out to be 8%.
Taken in the same sequence, the figures for `C#C[C@H](Cc1cccc(F)c1)n1nnc2cc3c(=O)n(C4CC4)nnc3cc2c1=O` were 0.45 µM and 1%.
In the case of `C[C@H](Cn1ncnn1)n1cnc2cc3c(=O)n(CC(F)F)nnc3cc2c1=O`, the Activity in the data set with Rattus norvegicus [8] was found to be 16%.
Turning to `C#CCn1nnc2cc3c(=O)n([C@H](C)Cn4ncnn4)nnc3cc2c1=O`, the CD in the data set listed under Rattus norvegicus [1] came to 0.57 µM. Moreover, the Activity with Rattus norvegicus [2] (route intraperitoneal) stood at 20%.
For the compound `C[C@H](Cn1nccn1)n1nnc2cc3c(=O)n([C@H](C)Cn4ncnn4)nnc3cc2c1=O`, in the data set filed under Rattus norvegicus [1], the CD came to 0.07 µM. In the data set on Rattus norvegicus [9], the Activity is reported as 26%.
For the compound `C[C@H](Cn1nccn1)n1cnc2cc3c(=O)n(C)nnc3cc2c1=O`, the Activity with Rattus norvegicus [8] was 30%.
Consider `CC(C)n1nnc2cc3c(=O)n([C@H](C)Cn4ncnn4)nnc3cc2c1=O`, for which, in the data set listed under Rattus norvegicus [1], the CD was 0.44 µM. The Activity with Rattus norvegicus [2] (route intraperitoneal) is given as 26%.
For `Cc1nnn(C[C@@H](C)n2nnc3cc4c(=O)n(C5CC5)nnc4cc3c2=O)n1` the same measures were 3.1 µM and 7%.
As for `C[C@H](Cn1ncnn1)n1nnc2cc3c(=O)n(C4CC4)nnc3cc2c1=O`, the CD in the data set filed under Rattus norvegicus [1] amounted to 0.28 µM. Also, the figures for the half-life in data set [10], in data set [5] and in data set [6] were 9.5 h, 3 h and 1.7 h, respectively. The bioavailability in data set [7] and in data set [11] was 100% each time. The Activity in the data set on Rattus norvegicus [2] (route intraperitoneal) came out at 37%.
For the compound `C#CCn1nnc2cc3c(=O)n([C@H](C)Cn4ncnn4)cnc3cc2c1=O`, the CD in the data set listed under Rattus norvegicus [1] is 0.5 µM. Further, in the data set with Rattus norvegicus [2] (route intraperitoneal), the Activity came out at 11%.
As for `C[C@H](Cn1ccnn1)n1cnc2cc3c(=O)n(C)nnc3cc2c1=O`, in the data set on Rattus norvegicus [8], the Activity was determined as 5%.
As to `C[C@H](Cn1ncnn1)n1cnc2cc3c(=O)n([C@H](C)Cn4ncnn4)cnc3cc2c1=O`, the CD in the data set filed under Rattus norvegicus [1] stood at 0.03 µM. In addition, the Activity in the data set with Rattus norvegicus [2] (route intraperitoneal) worked out at 0%.
Turning to `C[C@H](Cn1ncnn1)n1cnc2cc3c(=O)n(C)nnc3cc2c1=O`, the Activity in the data set on Rattus norvegicus [2] (route intraperitoneal) is 63%.
Same read-out and setting: with `C[C@H](Cn1ncc(C#N)n1)n1nnc2cc3c(=O)n(C4CC4)nnc3cc2c1=O` the figure was 17%.
Consider `C[C@H](Cn1nccn1)n1nnc2cc3c(=O)n([C@H](C)Cn4nccn4)nnc3cc2c1=O`, for which the CD in the data set filed under Rattus norvegicus [1] stood at 0.4 µM. Besides, the Activity in the data set with Rattus norvegicus [2] (route intraperitoneal) is reported as 9%.
`C[C@H](Cn1ncnn1)n1nnc2cc3c(cc2c1=O)OCN(C1CC1)C3=O` gave a half-life in data set [6] of 0.27 h.
With `C[C@H](Cn1cncn1)n1nnc2cc3c(=O)n(C4CC4)nnc3cc2c1=O`, the CD in the data set listed under Rattus norvegicus [1] was determined as 1.1 µM. Moreover, the Activity with Rattus norvegicus [2] (route intraperitoneal) is 7%.
Regarding `C[C@H](Cn1ccnn1)n1nnc2cc3c(=O)n([C@H](C)Cn4ccnn4)nnc3cc2c1=O`, the CD in the data set listed under Rattus norvegicus [1] was 0.06 µM. Besides, the Activity in the data set on Rattus norvegicus [9] was determined as 0%.
In the case of `O=c1c2cc3nnn(C4CC4)c(=O)c3cc2nnn1CCn1ncnn1`, the Activity in the data set with Rattus norvegicus [2] (route intraperitoneal) was 1%.
